The target in series [1] is human Fibroblast activation protein alpha (hFAP) (Homo sapiens (Human), UniProt Q12884). The series can be described thus: hFAP inhibition assay (tight binders). The class given is biochemical. The following applies: tight-binder format, Ala-Pro-AMC 20 μM, 2.5 h incubation; n = 1 or geometric mean (n = 5-10). As for the experimental part: Data were analyzed in Genedata Screener®.

A short description of series [2]: Kinetic solubility. The class given is physicochemical. As for the experimental part: Kinetic solubility was measured as described in Comput Aided Mol Des 2015, 29, 795.
Series [3] concerns Human Hepatocytes (hHep). As to the kind of experiment: Metabolic stability in human hepatocytes (hHep). The class given is in vitro ADME. As for the experimental part: Metabolic stability in human hepatocytes was measured as described in Xenobiotica 2010, 40, 637.
The subject of series [4] is Rat Hepatocytes (rHep). As to the kind of experiment: Metabolic stability in rat hepatocytes (rHep). It counts as in vitro ADME. As for the experimental part:
Metabolic stability in rat hepatocytes was measured as described in J Comput Aided Mol Des 2015, 29, 795.

Series [5] has as its target Prolyl Oligopeptidase (hPREP) (Homo sapiens (Human), UniProt P48147). As to the kind of experiment: hPREP inhibition assay. The class given is biochemical. The note with it: hPREP 0.6 nM, Z-Gly-Pro-amino-methylcoumarin 50 μM; read-out: PREP IC50. As for the experimental part:
Compounds were tested in a biochemical inhibition assay using Prolyl endopeptidase, Prolyl Oligopeptidase (hPREP) enzyme at 0.6 nM FAC (R&D Systems, 4308-SE) and the substrate Z-Gly-Pro-amino-methylcoumarin (Bachem, I-1145) at 50 μM FAC. 384 Low volume black plates (Greiner #784076) were used. […] 4 μL, 100 μM substrate solution (25 mM Tris HCl, 250 mM NaCl, 0.01% Triton X-100, 5 mM Glutathione, pH 7.5) was added to each well. Plates were centrifuged at 1000 rpm and incubated for 20 min at rt in dark. […] Data were analyzed in Genedata Screener®.

The target in series [6] is hFAP (Homo sapiens (Human), UniProt Q12884).
Sequence of hFAP (Q12884 38-760): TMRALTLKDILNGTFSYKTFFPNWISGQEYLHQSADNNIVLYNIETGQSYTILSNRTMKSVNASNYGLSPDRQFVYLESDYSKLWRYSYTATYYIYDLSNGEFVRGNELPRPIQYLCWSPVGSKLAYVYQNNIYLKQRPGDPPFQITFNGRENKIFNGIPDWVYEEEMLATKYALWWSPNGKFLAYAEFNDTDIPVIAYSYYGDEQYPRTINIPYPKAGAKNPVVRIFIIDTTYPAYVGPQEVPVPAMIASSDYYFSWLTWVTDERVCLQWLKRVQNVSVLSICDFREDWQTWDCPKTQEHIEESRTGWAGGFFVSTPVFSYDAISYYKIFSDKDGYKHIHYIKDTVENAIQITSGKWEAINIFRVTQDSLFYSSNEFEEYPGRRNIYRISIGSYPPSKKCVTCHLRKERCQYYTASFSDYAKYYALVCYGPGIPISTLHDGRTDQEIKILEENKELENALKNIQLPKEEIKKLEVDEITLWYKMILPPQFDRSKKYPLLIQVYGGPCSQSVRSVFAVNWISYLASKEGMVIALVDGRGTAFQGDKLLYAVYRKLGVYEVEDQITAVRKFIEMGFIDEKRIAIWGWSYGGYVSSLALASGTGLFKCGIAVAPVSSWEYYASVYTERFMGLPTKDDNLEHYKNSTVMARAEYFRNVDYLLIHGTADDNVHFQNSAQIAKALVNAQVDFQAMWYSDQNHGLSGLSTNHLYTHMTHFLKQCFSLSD
Method: Compounds were tested in a biochemical inhibition assay using hFAP enzyme at 0.24 nM FAC (Proteros, 38-760 (PR-0071)) and the substrate Ala-Pro-AMC (ARI-3144) at 20 μM FAC. 384 low volume black plates (Greiner #784076) were used. 4 μL, 0.48 nM enzyme solution (100 mM Tris HCl, 100 mM NaCl, 0.05% Chaps, pH 7.4) was added to 40 nL compounds (in DMSO) at 10 CR, 3-fold dilution series from 50 μM FAC. Plates were incubated for 15 min at rt in dark. 4 μL, 40 μM substrate solution (100 mM Tris HCl, 100 mM NaCl, 0.05% Chaps, pH 7.4) was added to each well. Plates were centrifuged at 1000 rpm and incubated for 30 min at rt in dark. The plates were read on a PHERAstar® reader with excitation 340 nm and emission 460 nm. Data were analyzed in Genedata Screener®. IC50 values were determined by plotting % inhibition versus log compound concentration and using a one site dose response model.
Series [7] is described as follows: Metabolic stability in human liver microsomes (HLM). It counts as in vitro ADME. As for the experimental part: Metabolic stability in HLM was measured as described in J Comput Aided Mol Des 2015, 29, 795.

≈ marks a conversion by molar mass, not a printed value. Where two headings read alike, the source gives them in different places. Some results are limits rather than exact numbers.

As usually defined, the IC50 is the point on the concentration scale where inhibition reaches its midpoint. In general, solubility refers to how much of the substance goes into solution per volume. The low end stands for a poorly soluble substance, the high end for a readily soluble substance. Broadly, the microsomal CLint is the capacity of the preparation to metabolise the compound, expressed as a volume cleared per time. A low value points to slow turnover.

Sequence of Prolyl Oligopeptidase (hPREP) (P48147 whole entry): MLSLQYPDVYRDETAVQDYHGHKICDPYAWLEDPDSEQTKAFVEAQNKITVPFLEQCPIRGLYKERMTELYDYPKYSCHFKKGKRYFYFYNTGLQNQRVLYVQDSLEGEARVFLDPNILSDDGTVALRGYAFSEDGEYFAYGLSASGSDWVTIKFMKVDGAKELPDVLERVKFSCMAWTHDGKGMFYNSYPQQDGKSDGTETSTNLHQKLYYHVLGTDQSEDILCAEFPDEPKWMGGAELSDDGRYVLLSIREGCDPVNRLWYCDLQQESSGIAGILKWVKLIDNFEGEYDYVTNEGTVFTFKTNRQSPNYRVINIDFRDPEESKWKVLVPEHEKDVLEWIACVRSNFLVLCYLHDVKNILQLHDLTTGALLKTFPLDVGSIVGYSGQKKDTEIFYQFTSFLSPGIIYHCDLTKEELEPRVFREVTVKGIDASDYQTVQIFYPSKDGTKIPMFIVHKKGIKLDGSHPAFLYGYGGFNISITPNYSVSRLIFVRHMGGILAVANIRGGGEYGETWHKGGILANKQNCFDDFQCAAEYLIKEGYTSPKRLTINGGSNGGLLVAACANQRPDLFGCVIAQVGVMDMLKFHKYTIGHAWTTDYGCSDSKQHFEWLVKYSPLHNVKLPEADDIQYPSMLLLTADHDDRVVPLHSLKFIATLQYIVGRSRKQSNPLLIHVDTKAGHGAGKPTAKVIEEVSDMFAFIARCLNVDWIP
Sequence of human Fibroblast activation protein alpha (hFAP) (Q12884 38-760): as the sequence (Q12884 38-760) above

Regarding `Cc1cc(C(=O)NCC(=O)N2[C@H](C#N)C[C@@H]3C[C@@H]32)c2cc(F)ccc2n1` [Example 4, N-(2-((1S,3S,5S)-3-Cyano-2-azabicyclo[3.1.0]hexan-2-yl)-2-oxoethyl)-6-fluoro-2-methylquinoline-4-carboxamide], the IC50 in series [1] worked out at 32 nM; in series [5], 22000 nM; in series [6], 64 nM. Further, the solubility in series [2] (kinetic from dmso stock) is above 1000 µM. In addition, the “hHep CLint” value in series [3] is on record as below 1 μL/min/1E6. Besides, the “rHeps CLint” value in series [4] turned out to be 1.2 μL/min/1E6. Also, the microsomal CLint in series [7] is below 3 µL/min/mg.
As for `Cc1cc(C(=O)NCC(=O)N2[C@H](C#N)C[C@@H]3C[C@@H]32)c2cc(Cl)ccc2n1` [Example 5, 6-Chloro-N-(2-((1S,3S,5S)-3-cyano-2-azabicyclo[3.1.0]hexan-2-yl)-2-oxoethyl)-2-methylquinoline-4-carboxamide], the IC50 in series [1] turned out to be 18 nM; in series [5], 18000 nM; in series [6], 65 nM. In addition, the concentration in solution in series [2] (kinetic from dmso stock) (solubility) came to 140 µM (≈ 51.6 µg/mL). In addition, the “rHeps CLint” value in series [4] stood at 2.8 μL/min/1E6. The microsomal CLint in series [7] came to 11 µL/min/mg.
With `Cc1cc(C(=O)NCC(=O)N2[C@H](C#N)C[C@@H]3C[C@@H]32)c2cc(Br)ccc2n1` [Example 6, 6-Bromo-N-(2-((1S,3S,5S)-3-cyano-2-azabicyclo[3.1.0]hexan-2-yl)-2-oxoethyl)-2-methylquinoline-4-carboxamide], the IC50 in series [1] came to 18 nM; in series [5], 13000 nM; in series [6] it was 58 nM. Moreover, the solubility in series [2] (kinetic from dmso stock) was determined as 61 µM (≈ 25.2 µg/mL). In addition, the “rHeps CLint” value in series [4] worked out at 5.8 μL/min/1E6. Besides, the microsomal CLint in series [7] is 23 µL/min/mg.
In the case of `Cc1cc(C(=O)NCC(=O)N2[C@H](C#N)C[C@@H]3C[C@@H]32)c2cc(I)ccc2n1` [Example 7, N-(2-((1S,3S,5S)-3-Cyano-2-azabicyclo[3.1.0]hexan-2-yl)-2-oxoethyl)-6-iodo-2-methylquinoline-4-carboxamide], the IC50 in series [1] was 15 nM; in series [5], 18000 nM; in series [6], 53 nM. This compound yielded a solubility in series [2] (kinetic from dmso stock) of 23 µM (≈ 10.6 µg/mL). Moreover, the “rHeps CLint” value in series [4] was 12 μL/min/1E6. In series [7], this compound had a microsomal CLint of 43 µL/min/mg.
For `CC(O)c1ccc2nccc(C(=O)NCC(=O)N3[C@H](C#N)C[C@@H]4C[C@@H]43)c2c1` (stereo partly drawn) [Example 14, N-(2-((1S,3S,5S)-3-Cyano-2-azabicyclo[3.1.0]hexan-2-yl)-2-oxoethyl)-6-(1-hydroxyethyl)quinoline-4-carboxamide], the figures for the IC50 in series [1], in series [5] and in series [6] were 0.91 nM, above 50000 nM and 2.6 nM, respectively. The same compound showed a solubility in series [2] (kinetic from dmso stock) above 1000 µM. Also, the “rHeps CLint” value in series [4] is listed as below 1 μL/min/1E6. For the same compound, the microsomal CLint in series [7] is below 3 µL/min/mg.
Regarding `CCc1ccc2nc(C)cc(C(=O)NCC(=O)N3[C@H](C#N)C[C@@H]4C[C@@H]43)c2c1` [Example 18, N-(2-((1S,3S,5S)-3-Cyano-2-azabicyclo[3.1.0]hexan-2-yl)-2-oxoethyl)-6-ethyl-2-methylquinoline-4-carboxamide], the IC50 in series [1] was 25 nM; in series [5], above 50000 nM; in series [6], 80 nM. Besides, the solubility in series [2] (kinetic from dmso stock) was determined as 800 µM (≈ 290 µg/mL). Also, in series [4], the “rHeps CLint” value turned out to be 18 μL/min/1E6. In series [7], this compound yielded a microsomal CLint of 120 µL/min/mg.
Take `Cc1ccc2nc(C)cc(C(=O)NCC(=O)N3[C@H](C#N)C[C@@H]4C[C@@H]43)c2c1` [Example 19, N-(2-((1S,3S,5S)-3-Cyano-2-azabicyclo[3.1.0]hexan-2-yl)-2-oxoethyl)-2,6-dimethylquinoline-4-carboxamide]: the results for the IC50 in series [1], in series [5] and in series [6] were 33 nM, 43000 nM and 80 nM, respectively. For the same compound, the solubility in series [2] (kinetic from dmso stock) was above 1000 µM. The “rHeps CLint” value in series [4] is given as below 1 μL/min/1E6. This compound also came in with a microsomal CLint in series [7] of 12 µL/min/mg.
Turning to `CC(O)c1ccc2c(C(=O)NCC(=O)N3[C@H](C#N)C[C@@H]4C[C@@H]43)ccnc2c1` (stereo partly drawn) [Example 25, N-(2-((1S,3S,5S)-3-Cyano-2-azabicyclo[3.1.0]hexan-2-yl)-2-oxoethyl)-7-(1-hydroxyethyl)quinoline-4-carboxamide], the IC50 in series [1] is 0.37 nM; in series [5], above 50000 nM; in series [6] it was below 1.8 nM. In addition, the concentration in solution in series [2] (kinetic from dmso stock) (solubility) was 960 µM (≈ 350 µg/mL). In series [4], the “rHeps CLint” value is below 1 μL/min/1E6. Moreover, the microsomal CLint in series [7] is below 3 µL/min/mg.
Take `CC(C)(O)c1ccc2c(C(=O)NCC(=O)N3[C@H](C#N)C[C@@H]4C[C@@H]43)ccnc2c1` [Example 26, N-(2-((1S,3S,5S)-3-Cyano-2-azabicyclo[3.1.0]hexan-2-yl)-2-oxoethyl)-7-(2-hydroxypropan-2-yl)quinoline-4-carboxamide]: the IC50 in series [1] is 0.7 nM; in series [5], above 50000 nM; in series [6] it was 2.1 nM. In series [2] (kinetic from dmso stock), this compound returned a solubility above 1000 µM. In series [4], the “rHeps CLint” value was below 1 μL/min/1E6. In series [7], this compound had a microsomal CLint below 3 µL/min/mg.
For the compound `CC(OC(F)(F)F)c1ccc2c(C(=O)NCC(=O)N3[C@H](C#N)C[C@@H]4C[C@@H]43)ccnc2c1` (stereo partly drawn) [Example 30, N-(2-((1S,3S,5S)-3-Cyano-2-azabicyclo[3.1.0]hexan-2-yl)-2-oxoethyl)-7-(1-(trifluoromethoxy)ethyl)quinoline-4-carboxamide], the values for the IC50 in series [1], in series [5] and in series [6] were 0.41 nM, above 50000 nM and 3.1 nM, respectively. In addition, the concentration in solution in series [2] (kinetic from dmso stock) (solubility) came to 200 µM (≈ 86.5 µg/mL). In addition, in series [4], the “rHeps CLint” value is recorded as 16 μL/min/1E6. This compound also displayed a microsomal CLint in series [7] of 42 µL/min/mg.
Take `CC1(c2ccc3c(C(=O)NCC(=O)N4[C@H](C#N)C[C@@H]5C[C@@H]54)ccnc3c2)CC1` [Example 32, N-(2-((1S,3S,5S)-3-Cyano-2-azabicyclo[3.1.0]hexan-2-yl)-2-oxoethyl)-7-(1-methylcyclopropyl)quinoline-4-carboxamide]: the solubility in series [2] (kinetic from dmso stock) was found to be 37 µM (≈ 13.9 µg/mL). In series [4], the “rHeps CLint” value was found to be 72 μL/min/1E6. In addition, the figures for the IC50 in series [5] and in series [6] were above 50000 nM and 2 nM, respectively. The compound also had a microsomal CLint in series [7] of 46 µL/min/mg.
As to `N#C[C@@H]1C[C@@H]2C[C@@H]2N1C(=O)CNC(=O)c1ccnc2ccc(OCC(F)(F)F)cc12` [Example 33, N-(2-((1S,3S,5S)-3-Cyano-2-azabicyclo[3.1.0]hexan-2-yl)-2-oxoethyl)-6-(2,2,2-trifluoroethoxy)quinoline-4-carboxamide], the solubility in series [2] (kinetic from dmso stock) turned out to be 700 µM (≈ 293 µg/mL). For the same compound, the “hHep CLint” value in series [3] was 25 μL/min/1E6. Also, the “rHeps CLint” value in series [4] is on record as 9.8 μL/min/1E6. The IC50 in series [6] was 1.4 nM. The compound also had a microsomal CLint in series [7] of 170 µL/min/mg.
For the compound `N#C[C@@H]1C[C@@H]2C[C@@H]2N1C(=O)CNC(=O)c1ccnc2ccc(OC3CCC(F)(F)CC3)cc12` [Example 38, N-(2-((1S,3S,5S)-3-Cyano-2-azabicyclo[3.1.0]hexan-2-yl)-2-oxoethyl)-6-((4,4-difluorocyclohexyl)oxy)quinoline-4-carboxamide], the solubility in series [2] (kinetic from dmso stock) came to 430 µM (≈ 195 µg/mL). Besides, in series [4], the “rHeps CLint” value is 55 μL/min/1E6. Further, the values for the IC50 in series [5] and in series [6] were above 50000 nM and 1.3 nM, respectively. In series [7], this compound had a microsomal CLint of 190 µL/min/mg.
As for `CCOC1(c2ccc3c(C(=O)NCC(=O)N4[C@H](C#N)C[C@@H]5C[C@@H]54)ccnc3c2)CC1` [Example 39, N-(2-((1S,3S,5S)-3-Cyano-2-azabicyclo[3.1.0]hexan-2-yl)-2-oxoethyl)-7-(1-ethoxycyclopropyl)quinoline-4-carboxamide], the IC50 was 0.41 nM in series [1], above 50000 nM in series [5] and 1.5 nM in series [6]. This compound also yielded a solubility in series [2] (kinetic from dmso stock) of 960 µM (≈ 388 µg/mL). For the same compound, the “rHeps CLint” value in series [4] came out at 13 μL/min/1E6. Besides, in series [7], the microsomal CLint is 77 µL/min/mg.
As for `N#C[C@@H]1C[C@@H]2C[C@@H]2N1C(=O)CNC(=O)c1ccnc2ccc(C3CC3)cc12` [Example 42, N-(2-((1S,3S,5S)-3-Cyano-2-azabicyclo[3.1.0]hexan-2-yl)-2-oxoethyl)-6-cyclopropylquinoline-4-carboxamide], in series [6], the IC50 was found to be 5.6 nM.
For `N#C[C@@H]1C[C@@H]2C[C@@H]2N1C(=O)CNC(=O)c1ccnc2cc(C3CC3)ccc12` [Example 47, N-(2-((1S,3S,5S)-3-Cyano-2-azabicyclo[3.1.0]hexan-2-yl)-2-oxoethyl)-7-cyclopropylquinoline-4-carboxamide], in series [2], the solubility is 590 µM (≈ 213 µg/mL).
Consider `N#C[C@@H]1CSCN1C(=O)CNC(=O)c1ccnc2ccccc12` [Reference Compound C, (R)-N-(2-(4-cyanothiazolidin-3-yl)-2-oxoethyl)-quinoline-4-carboxamide, reference compound], for which the IC50 in series [5] worked out at 7.1 nM.

Values taken from US20230406840A1, “N-(2-(3-CYANO-2-AZABICYCLO[3.1.0]HEXAN-2-YL)-2-OXOETHYL)QUINOLINE-4-CARBOXAMIDES” (AstraZeneca AB, priority 2022, published 2023).
